Where “and” joins values, the source holds several entries; their conditions need not be identical. Identical values can stand only once.
Assays:
Format in all cases: cell-based
[1] = tested on: Escherichia coli; test: MIC, test tube serial dilution, Escherichia coli
[2] = tested on: Proteus vulgaris; test: MIC, test tube serial dilution, Proteus vulgaris
[3] = tested on: Streptococcus faecalis; test: MIC, test tube serial dilution, Streptococcus faecalis
[4] = tested on: Klebsiella-Aerobacter; test: MIC, test tube serial dilution, Klebsiella-Aerobacter
[5] = tested on: Pseudomonas aeruginosa; test: MIC, test tube serial dilution, Pseudomonas aeruginosa
[6] = tested on: Staphylococcus aureus; test: MIC, test tube serial dilution, Staphylococcus aureus
[7] = tested on: Proteus morganii; test: MIC, test tube serial dilution, Proteus morganii
[8] = strain 1756 (BRL 1 756), 24 hours, 37°C

Molecule | MIC ([1]; strain 183/58, 24 hours, 37°C) | MIC ([1]; strain A 261, 24 hours, 37°C) | MIC ([3]; unit assumed) | MIC ([4]; in µg/mL (unit assumed)) | MIC ([5]; in µg/mL (unit assumed)) | MIC [6, 8] | MIC ([7]; unit assumed) | further results
CC1(C)S[C@@H]2[C@H](NC(=O)[C@H](NC(=O)N3CCN(C=O)C3=O)c3ccccc3)C(=O)N2[C@H]1C(=O)O [Example 20, Sodium D(-)-α-[(3-formyl-imidazolidin-2-on-1-yl)-carbonylamino]-benzylpenicillin] | 64 U/ml | > 256 U/ml | 32 µg/mL | 32 | 8 | 128 U/ml | 8 µg/mL | MIC ([2]; strain 1017, 24 hours, 37°C): 16 U/ml; MIC ([4]; strain 63, 24 hours, 37°C): 64 U/ml; MIC ([5]; strain Walter, 24 hours, 37°C): 16 U/ml
CC(=O)N1CCN(C(=O)NC(C(=O)N[C@@H]2C(=O)N3[C@@H]2SC(C)(C)[C@@H]3C(=O)O)c2c(Cl)cccc2Cl)C1=O (stereo partly drawn) [Penicillin No. 10 (Table 3), Sodium D,L-α-[(3-acetyl-imidazolidin-2-on-1-yl)carbonylamino]-2,6-dichloro-benzylpenicillin] | – | – | – | – | – | – | – | MIC ([1]; Table 3, strain 14): 128 U/ml; MIC ([1]; Table 3, strain 183/58): 256 U/ml; MIC ([1]; Table 3, strain A 261): > 512 U/ml; MIC ([1]; Table 3, strain C 165): 512 U/ml; MIC ([2]; Table 3, strain 1017): 256 U/ml; MIC ([3]; Table 3, ATCC 9790): > 512 U/ml; MIC ([4]; Table 3, strain 63): > 512 U/ml; MIC ([4]; Table 3, strain K 10): > 512 U/ml; MIC ([5]; Table 3, strain F 41): > 512 U/ml; MIC ([5]; Table 3, strain Walter): > 512 U/ml; MIC ([6]; Table 3, strain 133): 16 U/ml; MIC ([6]; Table 3, strain 1756E): 512 U/ml; MIC ([7]; Table 3, strain 932): 256 U/ml
CC1(C)S[C@@H]2[C@H](NC(=O)[C@H](NC(=O)N3CCN(C(=O)c4ccccc4)C3=O)c3ccccc3)C(=O)N2[C@H]1C(=O)O [Example 12, Sodium D(-)-α-[(3-benzoyl-imidazolidin-2-on-1-yl)-carbonylamino]-benzylpenicillin] | < 1 U/ml | 64 U/ml | 32 µg/mL | 8 | 32 | 256 U/ml | 8 µg/mL | –
CC1(C)S[C@@H]2[C@H](NC(=O)[C@H](NC(=O)N3CCN(C(=O)N4CCCC4)C3=O)c3ccccc3)C(=O)N2[C@H]1C(=O)O [Example 8, Sodium D(-)-α-[(3-pyrrolidyl-N-carbonyl-imidazolidin-2-on-1-yl)-carbonylamino]-benzylpenicillin] | 4 U/ml | – | 128 µg/mL | – | 32 | 128 U/ml | 64 µg/mL | MIC ([2]; unit assumed): 32 µg/mL
Sodium D(-)-α-[(3-methylsulphonyl-4- or 5-methyl-imidazolidin-2-on-1-yl)-carbonylamino]-benzylpenicillin [Example 32] | – | – | 16 µg/mL | 32 and 16 | 256 and 128 | – | 8 µg/mL | MIC ([2]; unit assumed): 8 µg/mL
CC1(C)S[C@@H]2[C@H](NC(=O)[C@H](NC(=O)N3CCN(C(=O)NS(C)(=O)=O)C3=O)c3ccccc3)C(=O)N2[C@H]1C(=O)O [Example 30, Sodium D(-)-α-[3-(methylsulphonyl-amino-carbonyl)-imidazolidinon-2-yl-1]-carbonylamino-benzylpenicillin] | 64 U/ml | > 256 U/ml | 128 µg/mL | 128 | 32 | 256 U/ml | 8 µg/mL | MIC ([4]; strain 63, 24 hours, 37°C): 64 U/ml
CC1(C)S[C@@H]2[C@H](NC(=O)[C@H](NC(=O)N3CCN(C(=O)Nc4ccccc4)C3=O)c3ccccc3)C(=O)N2[C@H]1C(=O)O [Example 10, Sodium D(-)-α-[(3-phenylaminocarbonyl-imidazolidin-2-on-1-yl)-carbonylamino]-benzylpenicillin] | 4 U/ml | > 256 U/ml | 128 µg/mL | 8 | – | > 256 U/ml | – | MIC ([2]; unit assumed): 8 µg/mL; MIC ([5]; strain Bonn, 24 hours, 37°C): 64 U/ml; MIC ([5]; strain Walter, 24 hours, 37°C): 256 U/ml
CC1(C)S[C@@H]2[C@H](NC(=O)[C@H](NC(=O)N3CCN(S(=O)(=O)c4ccccc4)C3=O)c3ccccc3)C(=O)N2[C@H]1C(=O)O [Example 27, Sodium D(-)-α-[(2-oxo-3-benzenesulphonyl-1-imidazolidinyl)-carbonylamino]-benzylpenicillin] | 0.5 U/ml | > 256 U/ml | – | – | 32 | 64 U/ml | – | –
CC(C)OC(=O)N1CCN(C(=O)N[C@@H](C(=O)N[C@@H]2C(=O)N3[C@@H]2SC(C)(C)[C@@H]3C(=O)O)c2ccccc2)C1=O [Example 7, Sodium D(-)-α-[(3-i-propyloxycarbonyl-imidazolidin-2-on-1-yl)-carbonylamino]-benzylpenicillin] | < 1 U/ml | > 256 U/ml | – | – | 8 | 128 U/ml | – | MIC ([2]; strain 1017, 24 hours, 37°C): 16 U/ml; MIC ([3]; ATCC 9790, 24 hours, 37°C): 16 U/ml; MIC ([5]; strain Bonn, 24 hours, 37°C): 16 U/ml
CC1(C)S[C@@H]2[C@H](NC(=O)[C@H](NC(=O)N3CCN(C(=O)Oc4ccccc4)C3=O)c3ccccc3)C(=O)N2[C@H]1C(=O)O [Example 11, Sodium D(-)-α-[(3-phenoxycarbonyl-imidazolidin-2-on-1-yl)-carbonylamino]-benzylpenicillin] | – | – | 16 µg/mL | 4 | 32 and 16 | – | 8 µg/mL | MIC ([2]; unit assumed): 16 µg/mL
CC1(C)S[C@@H]2[C@H](NC(=O)[C@H](NC(=O)N3CCN=C3NS(C)(=O)=O)c3ccccc3)C(=O)N2[C@H]1C(=O)O [Example 19, Sodium D(-)-α-[(2-methylsulphonylamino-imidazolin(2)-1-yl)-carbonylamino]-benzylpenicillin] | 16 U/ml | – | – | – | – | – | 32 µg/mL | MIC ([2]; strain 1017, 24 hours, 37°C): 16 U/ml; MIC ([2]; unit assumed): 16 µg/mL
CC1(C)S[C@@H]2[C@H](NC(=O)[C@H](NC(=O)N3CCN(C(=O)c4ccco4)C3=O)c3ccccc3)C(=O)N2[C@H]1C(=O)O [Example 13, Sodium D(-)-α-[(3-furoyl(2)-imidazolidin-2-on-1-yl)-carbonylamino]-benzylpenicillin] | < 1 U/ml | – | – | 8 | – | 128 U/ml | – | MIC ([3]; ATCC 9790, 24 hours, 37°C): 16 U/ml; MIC ([5]; strain F 41, 24 hours, 37°C): 16 U/ml; MIC ([5]; strain Walter, 24 hours, 37°C): 16 U/ml
CC1(C)S[C@@H]2[C@H](NC(=O)[C@H](NC(=O)N3CCN(C(N)=O)C3=O)c3ccccc3)C(=O)N2[C@H]1C(=O)O [Example 5, Sodium D(-)-α-[(3-aminocarbonyl-imidazolidin-2-on-1-yl)-carbonylamino]-benzylpenicillin] | 4 U/ml | 256 U/ml | 32 µg/mL | 32 | 32 | > 256 U/ml | 32 µg/mL | MIC ([4]; strain 63, 24 hours, 37°C): 16 U/ml
CC1(C)S[C@@H]2[C@H](NC(=O)[C@H](NC(=O)N3CCN(S(C)(=O)=O)C3=O)c3ccccc3)C(=O)N2[C@H]1C(=O)O [Penicillin No. 1 (Table 3), Sodium D(-)-α-[(3-methylsulphonyl-imidazolidin-2-on-1-yl)-carbonylamino]-benzylpenicillin] | – | – | – | – | – | – | – | MIC ([1]; Table 3, strain 14): < 0.8 U/ml; MIC ([1]; Table 3, strain 183/58): 1.6 U/ml; MIC ([1]; Table 3, strain A 261): 200 U/ml; MIC ([2]; Table 3, strain 1017): 3.1 U/ml; MIC ([3]; Table 3, ATCC 9790): 25 U/ml; MIC ([4]; Table 3, strain 63): 12.5 U/ml; MIC ([4]; Table 3, strain K 10): 6.2 U/ml; MIC ([5]; Table 3, strain F 41): 50 U/ml; MIC ([5]; Table 3, strain Walter): 50 U/ml; MIC ([6]; Table 3, strain 133): < 0.8 U/ml; MIC ([6]; Table 3, strain 1756E): 400 U/ml
CCC(=O)N1CCN(C(=O)N[C@@H](C(=O)N[C@@H]2C(=O)N3[C@@H]2SC(C)(C)[C@@H]3C(=O)O)c2ccccc2)C1=O [Example 26, Sodium D(- )-α-[(2-oxo-3-propionyl-1-imidazolidinyl)-carbonylamino]-benzylpenicillin] | 4 U/ml | > 256 U/ml | 8 µg/mL | 32 | 32 | 64 U/ml | – | MIC ([4]; strain 63, 24 hours, 37°C): 16 U/ml; MIC ([5]; strain Walter, 24 hours, 37°C): 64 U/ml
CC(C)(C)C(=O)N1CCN(C(=O)N[C@@H](C(=O)N[C@@H]2C(=O)N3[C@@H]2SC(C)(C)[C@@H]3C(=O)O)c2ccccc2)C1=O [Example 21, Sodium D(-)-α-[(3-pivaloyl-imidazolidin-2-on-1-yl)-carbonylamino]-benzylpenicillin] | < 1 U/ml | 256 U/ml | – | 8 | 32 | 256 U/ml | – | MIC ([3]; ATCC 9790, 24 hours, 37°C): 64 U/ml
CCCC(=O)N1CCN(C(=O)N[C@@H](C(=O)N[C@@H]2C(=O)N3[C@@H]2SC(C)(C)[C@@H]3C(=O)O)c2ccccc2)C1=O [Example 14, Sodium D(-)-α-[(3-n-butyryl-imidazolidin-2-on-1-yl)-carbonylamino]-benzylpenicillin] | < 1 U/ml | – | 32 µg/mL | – | 32 | 128 U/ml | – | –
Cc1ccc(S(=O)(=O)NC2=NCCN2C(=O)N[C@@H](C(=O)N[C@@H]2C(=O)N3[C@@H]2SC(C)(C)[C@@H]3C(=O)O)c2ccccc2)cc1 [Example 25, Sodium D(-)-α-[(2-tosylamino-imidazolin(2)-1-yl)-carbonylamino]-benzylpenicillin] | 32 U/ml | > 256 U/ml | – | – | 32 | 64 U/ml | – | MIC ([1]; strain C 165, 24 hours, 37°C): 16 U/ml; MIC ([2]; strain 1017, 24 hours, 37°C): 16 U/ml; MIC ([3]; ATCC 9790, 24 hours, 37°C): 16 U/ml; MIC ([4]; strain 63, 24 hours, 37°C): 64 U/ml; MIC ([4]; strain K 10, 24 hours, 37°C): 64 U/ml; MIC ([5]; strain Bonn, 24 hours, 37°C): 64 U/ml
CC1(C)S[C@@H]2[C@H](NC(=O)[C@H](NC(=O)N3CCN(C(=O)OC4CCCCC4)C3=O)c3ccccc3)C(=O)N2[C@H]1C(=O)O [Example 23, Sodium D(-)-α-[(3-cyclohexyloxycarbonyl-imidazolidin-2-on-1-yl)-carbonylamino]-benzylpenicillin] | < 1 U/ml | – | 32 µg/mL | 8 | 32 | 64 U/ml | – | MIC ([5]; strain Bonn, 24 hours, 37°C): 16 U/ml

— patent US3983105A, “Penicillins” (Bayer Aktiengesellschaft, priority 1971, dated 1976)
